“And” between values parts separate entries of the source, which are not always exact repeats. Equal entries are not always repeated. Where no end group is shown, it is not given here.
Test system: culture of rat medial septum nucleous
Assay: Enhancing effect on acetylcholine synthesis in culture of rat medial septum nucleus (method of Ojika et al.)
Format: cell-based
Settings: for Ash synthesis (%): Table 4, Concentration 1 x 10⁻⁸, control value as 100%, several single values per cell
Procedure: The neurotrophic peptide and its derivative of the present invention can regulate differentiation and maturation of neuronal cells. That is, the neurotrophic peptide and its derivative accelerate the acetylcholine synthesis in the tissue of medial septum nucleous which is rich in cholinergic neuron. The biological activity can be determined by the method of Ojika, K., et al. [Ojika, K., et al., Japanese Journal of Psycopharmacology, 7, 447-451, (1987)].
The peptides were assayed for a biological activity in accordance with the method of Ojika et al. [Japanese Journal of Psycopharmacology, 7, 447-451 (1987)]. Namely, medial septum nucleous removed from rat embryonal brain (16 day embryo) is cut to small pieces, then the pieces were cultured in the Bottenstein's modified N₂ medium containing 1% FCS of saturation concentration, in Falcon's 35 mm plastic culture dish with 7% CO₂ mixed air, at 36°C. The neurotrophic peptide or its derivative was added to the cultures at initial day. In a control group, no peptide is added. The neurotrophic peptide may be added to the culture at 3 days after the initial day. After 6 days culture, an acetylcholine synthesis activity of cultured tissue was assayed to determine the biological activity of the peptide. The acetylcholine synthesis activity was assayed as follows.
A cultured tissue was pre-incubated in high potasium Tyrode solution buffered with tris-HCl (pH 7.4) containing 98 mM of Nacl and 55 mM of Kcl , then incubated in a buffered solution containing 100 nM [³H] choline chloride (15 Ci/mmol) at 37°C for 30 minutes. After washing out of free [³H] choline, the tissue was dissolved in 1 N formic acid/acetone (15 : 85) solution. Free [³H] choline was converted to phosphocholine by choline kinase (0.1 unit/ml) and [³H] acetylcholine was extracted with tetraphenyl boron (5 mg/ml acetonitrile) to determine the acetylcholine synthesis activity. The activity of cultured tissue for synthesis of acetylcholine was defined as an amount of synthesized acetylcholine per piece of cultured tissue.

Row | Substance | Ash synthesis (%) | Ach synthesis activity (Table 3, 2.5 pg/ml, 6 days culture, average value in triplet assay, Control 7.1 ± 1.1) [fmol/specimen] | acetylcholine synthesis activity as compared with control culture (concentration of 2.5 pg/ml) [%]
1 | Ac-AADISQWAG-NH2 [Ac-HCNP(1-9)NH₂] | 227% and 216% | – | –
2 | DISQWAG-NH2 [HCNP(3-9)NH₂] | 224% and 138% | – | –
3 | H-AADISQWAGPL-OH [f-HCNP, H-Ala-Ala-Asp-Ile-Ser-Gln-Trp-Ala-Gly-Pro-Leu-OH] | – | 11.3 ± 0.8 | 159
4 | ISQWAGPL [HCNP(4-11)OH, Ile-Ser-Gln-Trp-Ala-Gly-Pro-Leu] | 160% and 139% | – | –

From patent EP0390602A1, “Neurotrophic peptides” (SUMITOMO PHARMACEUTICALS COMPANY, LIMITED, priority 1989, dated 1990)
